# Source: patent US9260440B2, “Fused tetra or penta-cyclic dihydrodiazepinocarbazolones as PARP inhibitors” (BeiGene, Ltd., priority 2011, dated 2016)
# Tested on: PARP PARylation in HeLa cells
# Test: PARylation assay in HeLa cells
# Assay type: cell-based
# Details: Homo sapiens, H2O2 200 μM induced DNA damage
row,Structure (SMILES),EC50
1,"O=C1NN=C2CC(c3ccccc3)Cc3[nH]c4cccc1c4c32 (stereo not drawn) [Compound 5, 2-phenyl-2,3,5,10-tetrahydro-[1,2]diazepino[3,4,5,6-def]carbazol-6(1H)-one]",10.1 nM
2,"CN(C)c1ccc(C2CC3=NNC(=O)c4cc(F)cc5[nH]c(c3c45)C2)cc1 (stereo not drawn) [Compound 12, 2-(4-(dimethylamino)phenyl)-8-fluoro-2,3,5,10-tetrahydro-[1,2]diazepino[3,4,5,6-def]carbazol-6(1H)-one]",26.6 nM
3,"N[C@@H](Cc1ccccc1)C(=O)N1CC2=NNC(=O)c3cccc4[nH]c(c2c34)C1 [Compound 64, (S)-2-(2-amino-3-phenylpropanoyl)-2,3,4,9-tetrahydro-2,4,9,10-tetraazacyclohepta[def]fluoren-8(1H)-one]",48 nM
